pKd: −log10 of the molar value.
Legend:
androgen receptor = target: T1, androgen receptor (Homo sapiens, UniProt P10275); test: Assay for binding affinity to androgen receptor ([3H]methyltrienolone radioligand, cell cytosol); details: 1 nM [3H]methyltrienolone, 24 hours at 4° C., Table 5
T1 sequence (P10275 1-920 T878A): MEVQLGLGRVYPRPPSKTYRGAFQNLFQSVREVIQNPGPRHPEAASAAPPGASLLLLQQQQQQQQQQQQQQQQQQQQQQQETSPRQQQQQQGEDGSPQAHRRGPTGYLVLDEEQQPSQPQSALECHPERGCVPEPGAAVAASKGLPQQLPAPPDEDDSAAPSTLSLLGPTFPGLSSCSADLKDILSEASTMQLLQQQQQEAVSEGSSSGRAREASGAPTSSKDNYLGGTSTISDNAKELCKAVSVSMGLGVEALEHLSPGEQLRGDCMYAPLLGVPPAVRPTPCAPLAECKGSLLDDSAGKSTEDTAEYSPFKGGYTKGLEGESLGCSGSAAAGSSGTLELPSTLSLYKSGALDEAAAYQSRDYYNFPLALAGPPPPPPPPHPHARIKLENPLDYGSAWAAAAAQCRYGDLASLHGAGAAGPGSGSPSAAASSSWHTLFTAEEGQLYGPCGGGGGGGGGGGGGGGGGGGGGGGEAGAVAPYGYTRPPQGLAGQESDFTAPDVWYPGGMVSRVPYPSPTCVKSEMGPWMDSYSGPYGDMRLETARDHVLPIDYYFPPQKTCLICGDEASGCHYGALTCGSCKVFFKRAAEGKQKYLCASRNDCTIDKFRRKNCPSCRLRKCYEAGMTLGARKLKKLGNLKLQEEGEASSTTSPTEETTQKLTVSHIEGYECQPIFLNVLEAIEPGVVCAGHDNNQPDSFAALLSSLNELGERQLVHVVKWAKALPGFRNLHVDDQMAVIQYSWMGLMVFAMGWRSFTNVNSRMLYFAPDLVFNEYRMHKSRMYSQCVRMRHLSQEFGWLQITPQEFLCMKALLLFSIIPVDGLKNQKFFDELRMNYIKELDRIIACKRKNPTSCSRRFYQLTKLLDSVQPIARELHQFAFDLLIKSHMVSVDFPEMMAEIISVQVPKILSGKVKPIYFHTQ
Description: Fractions of cell cytosol ([…] cell/point) were incubated for 24 hours at 4° C. with 1 nM [^3H]methyltrienolone in the absence or presence of the test compound in a buffer containing 25 mM Hepes-Tris (pH 7.4), 1 mM EDTA, 10 mM Na2MoO4, 2 mM DTT, 5 μM triamcinolone acetonide, and 10% glycerol. Nonspecific binding was determined in the presence of 1 μM testosterone. Following incubation, the samples were filtered rapidly under vacuum through glass fiber filters (GF/B, Packard) presoaked with 0.3% PEI and rinsed several times with ice-cold 50 mM Tris-HCl using a 96-sample cell harvester (Unifilter, Packard). The filters were dried then counted for radioactivity in a scintillation counter (Topcount, Packard) using a scintillation cocktail (Microscint 0, Packard). The results are expressed as a percent inhibition of the control radioligand specific binding. The standard reference compound is testosterone, which is tested in each experiment at several concentrations to obtain a competition curve from which its IC50 is calculated.

VCaP cells = test: Cellular growth inhibition assay for VCaP cells, CellTiter-Glo; assay type: cell-based, human; details: Homo sapiens, VCaP, 72 h, 72 hours treatment, CellTiter-Glo 2.0
Outline: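 GI50 values come from four-parameter curve fits of luminescence data normalized to a zero baseline. Compound, in medium with 0.5% DMSO, was added one day after plating and left for 72 h before CellTiter-Glo 2.0 addition.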

Row | SMILES | pKd (androgen receptor) | GI50 (VCaP cells) [nM]
1 | Cc1sc2c(c1C)C(c1ccc(Cl)cc1)=N[C@@H](CC(=O)NCCOCCOCCOCCOCCOC1CCN(c3ncc(C(=O)N[C@H]4C(C)(C)[C@H](Oc5ccc(C#N)c(Cl)c5)C4(C)C)cn3)CC1)c1nnc(C)n1-2 [Compound I-8] | > 7.30 | < 500
2 | CCNC(=O)C[C@@H]1N=C(c2ccc(N3CCN(CC4CCN(c5ncc(C(=O)N[C@H]6C(C)(C)[C@H](Oc7ccc(C#N)c(Cl)c7)C6(C)C)cn5)CC4)CC3)cc2)c2c(sc(C)c2C)-n2c(C)nnc21 [Compound I-105, N-[3-(3-chloro-4-cyano-phenoxy)-2,2,4,4-tetramethyl-cyclobutyl]-2-[4-[[4-[4-[(9S)-9-[2-(ethylamino)-2-oxo-ethyl]-4,5,13-trimethyl-3-thia-1,8,11,12-tetrazatricyclo[8.3.0.02,6]trideca-2(6),4,7,10,12-pentaen-7-yl]phenyl]piperazin-1-yl]methyl]-1-piperidyl]pyrimidine-5-carboxamide] | > 7.30 | < 500
3 | Cc1sc2c(c1C)C(c1ccc(Cl)cc1)=N[C@@H](CC(=O)NCCCCOCCOC1CCN(c3ncc(C(=O)N[C@H]4C(C)(C)[C@H](Oc5ccc(C#N)c(Cl)c5)C4(C)C)cn3)CC1)c1nnc(C)n1-2 [Compound I-28] | > 7.30 | < 500
4 | CCNC(=O)C[C@@H]1N=C(c2ccc(N3CC(N(C)C4CN(c5ncc(C(=O)N[C@H]6C(C)(C)[C@H](Oc7ccc(C#N)c(Cl)c7)C6(C)C)cn5)C4)C3)cc2)c2c(sc(C)c2C)-n2c(C)nnc21 [Compound I-121] | > 7.30 | < 500
5 | Cc1sc2c(c1C)C(c1ccc(Cl)cc1)=N[C@@H](CC(=O)NCCCCCCCOC1CCN(c3ncc(C(=O)N[C@H]4C(C)(C)[C@H](Oc5ccc(C#N)c(Cl)c5)C4(C)C)cn3)CC1)c1nnc(C)n1-2 [Compound I-24] | > 7.30 | < 500
6 | Cc1sc2c(c1C)C(c1cccc(OCCOCCOC3CCN(c4ncc(C(=O)N[C@H]5C(C)(C)[C@H](Oc6ccc(C#N)c(Cl)c6)C5(C)C)cn4)CC3)c1)=N[C@@H](CC(=O)O)c1nnc(C)n1-2 [Compound I-42] | > 7.30 | 1500 to 3000
7 | Cc1sc2c(c1C)C(c1cccc(OCCOCCOCCOC3CCN(c4ncc(C(=O)N[C@H]5C(C)(C)[C@H](Oc6ccc(C#N)c(Cl)c6)C5(C)C)cn4)CC3)c1)=N[C@@H](CC(=O)O)c1nnc(C)n1-2 [Compound I-43] | > 7.30 | > 3000
8 | CCNC(=O)C[C@@H]1N=C(c2cccc(OCCOCCOC3CCN(c4ncc(C(=O)N[C@H]5C(C)(C)[C@H](Oc6ccc(C#N)c(Cl)c6)C5(C)C)cn4)CC3)c2)c2c(sc(C)c2C)-n2c(C)nnc21 [Compound I-47, N-((1r,3r)-3-(3-chloro-4-cyanophenoxy)-2,2,4,4-tetramethylcyclobutyl)-2-(4-(2-(2-(3-((S)-6-(2-(ethylamino)-2-oxoethyl)-2,3,9-trimethyl-6H-thieno[3,2-f][1,2,4]triazolo[4,3-a][1,4]diazepin-4-yl)phenoxy)ethoxy)ethoxy)piperidin-1-yl)pyrimidine-5-carboxamide] | > 7.30 | 500 to 1500
9 | CCNC(=O)C[C@@H]1N=C(c2ccc(N(C)C3CC(OC4CCN(c5ncc(C(=O)N[C@H]6C(C)(C)[C@H](Oc7ccc(C#N)c(Cl)c7)C6(C)C)cn5)CC4)C3)cc2)c2c(sc(C)c2C)-n2c(C)nnc21 (stereo partly drawn) [Compound I-130] |  | 500 to 1500
10 | CCNC(=O)C[C@@H]1N=C(c2ccc(CCCN(C)c3ncc(C(=O)N[C@H]4C(C)(C)[C@H](Oc5ccc(C#N)c(Cl)c5)C4(C)C)cn3)cc2)c2c(sc(C)c2C)-n2c(C)nnc21 [Compound I-104] |  | > 3000
11 | CCNC(=O)C[C@@H]1N=C(c2ccc(OCCOC3CCN(c4ncc(C(=O)N[C@H]5C(C)(C)[C@H](Oc6ccc(C#N)c(Cl)c6)C5(C)C)cn4)CC3)cc2F)c2c(sc(C)c2C)-n2c(C)nnc21 [Compound I-75] |  | < 500
12 | Cc1sc2c(c1C)C(c1ccc(CCCOC3CCN(c4ncc(C(=O)N[C@H]5C(C)(C)[C@H](Oc6ccc(C#N)c(Cl)c6)C5(C)C)cn4)CC3)cc1)=N[C@@H](CC(=O)NC1CC1)c1nnc(C)n1-2 [Compound I-102] |  | < 500
13 | CCNC(=O)C[C@@H]1N=C(c2ccc(N(C3CC3)C3CN(CC4CCN(c5ncc(C(=O)N[C@H]6C(C)(C)[C@H](Oc7ccc(C#N)c(Cl)c7)C6(C)C)cn5)CC4)C3)cc2)c2c(sc(C)c2C)-n2c(C)nnc21 [Compound I-129] |  | < 500
14 | Cc1sc2c(c1C)C(c1ccc(Cl)cc1)=N[C@@H](CC(=O)NCCOCCOCCOCCOC1CCN(c3ncc(C(=O)N[C@H]4C(C)(C)[C@H](Oc5ccc(C#N)c(Cl)c5)C4(C)C)cn3)CC1)c1nnc(C)n1-2 [Compound I-11] |  | < 500
15 | Cc1sc2c(c1C)C(c1ccc(Cl)cc1)=N[C@@H](CC(=O)NCCN(C)c1ncc(C(=O)N[C@H]3C(C)(C)[C@H](Oc4ccc(C#N)c(Cl)c4)C3(C)C)cn1)c1nnc(C)n1-2 [Compound I-1, N-[3-(3-chloro-4-cyano-phenoxy)-2,2,4,4-tetramethyl-cyclobutyl]-2-[2-[[2-[(9S)-7-(4-chlorophenyl)-4,5,13-trimethyl-3-thia-1,8,11,12-tetrazatricyclo[8.3.0.02,6]trideca-2(6),4,7,10,12-pentaen-9-yl]acetyl]amino]ethyl-methyl-amino]pyrimidine-5-carboxamide] | > 7.30 | 
16 | CCNC(=O)C[C@@H]1N=C(c2ccc(C#CCN3CCN(c4ncc(C(=O)N[C@H]5C(C)(C)[C@H](Oc6ccc(C#N)c(Cl)c6)C5(C)C)cn4)CC3)cc2)c2c(sc(C)c2C)-n2c(C)nnc21 [Compound I-54, N-[3-(3-chloro-4-cyano-phenoxy)-2,2,4,4-tetramethyl-cyclobutyl]-2-[4-[3-[4-[(9S)-9-[2-(ethylamino)-2-oxo-ethyl]-4,5,13-trimethyl-3-thia-1,8,11,12-tetrazatricyclo[8.3.0.02,6]trideca-2(6),4,7,10,12-pentaen-7-yl]phenyl]prop-2-ynyl]piperazin-1-yl]pyrimidine-5-carboxamide] |  | < 500
17 | Cc1sc2c(c1C)C(c1ccc(CCCOC3CCN(c4ncc(C(=O)N[C@H]5C(C)(C)[C@H](Oc6ccc(C#N)c(Cl)c6)C5(C)C)cn4)CC3)cc1)=N[C@@H](Cc1ncco1)c1nnc(C)n1-2 [Compound I-131, N-[3-(3-chloro-4-cyano-phenoxy)-2,2,4,4-tetramethyl-cyclobutyl]-2-[4-[3-[4-[(9S)-4,5,13-trimethyl-9-(oxazol-2-ylmethyl)-3-thia-1,8,11,12-tetrazatricyclo[8.3.0.02,6]trideca-2(6),4,7,10,12-pentaen-7-yl]phenyl]propoxy]-1-piperidyl]pyrimidine-5-carboxamide] |  | < 500
18 | Cc1sc2c(c1C)C(c1ccc(Cl)cc1)=N[C@@H](CC(=O)NCCOCCOCCOCC1CCN(c3ncc(C(=O)N[C@H]4C(C)(C)[C@H](Oc5ccc(C#N)c(Cl)c5)C4(C)C)cn3)CC1)c1nnc(C)n1-2 [Compound I-17] | > 7.30 | 
19 | Cc1sc2c(c1C)C(c1ccc(Cl)cc1)=N[C@H](CC(=O)NCCOCCOCCOCCOCCOC1CCN(c3ncc(C(=O)N[C@H]4C(C)(C)[C@H](Oc5ccc(C#N)c(Cl)c5)C4(C)C)cn3)CC1)c1nnc(C)n1-2 [Compound I-14] |  | > 3000
20 | Cc1sc2c(c1C)C(c1ccc(C3CC3C3CC4(CCN(c5ncc(C(=O)N[C@H]6C(C)(C)[C@H](Oc7ccc(C#N)c(Cl)c7)C6(C)C)cn5)CC4)C3)cc1)=N[C@@H](Cc1ncco1)c1nnc(C)n1-2 (stereo partly drawn) [Compound I-237] |  | < 500
21 | CCN(C)C(=O)C[C@@H]1N=C(c2ccc(CCCOC3CCN(c4ncc(C(=O)N[C@H]5C(C)(C)[C@H](Oc6ccc(C#N)c(Cl)c6)C5(C)C)cn4)CC3)cc2)c2c(sc(C)c2C)-n2c(C)nnc21 [Compound I-101] |  | > 3000
22 | Cc1sc2c(c1C)C(c1ccc(OC3CN(CC4CCN(c5ncc(C(=O)N[C@H]6C(C)(C)[C@H](Oc7ccc(C#N)c(Cl)c7)C6(C)C)cn5)CC4)C3)cc1)=N[C@H](Cc1ncco1)c1nnc(C)n1-2 [Compound I-169] |  | < 500

Reference: patent publication US20260062422A1 (Halda Therapeutics OpCo, Inc., priority 2022, published 2026)
